Measured values as given in patent publication US20210171579A1, “INHIBITOR USING PLANT CYCLOPEPTIDE AS EFFECTIVE COMPONENT FOR LIPID METABOLIC ABNORMALITIES IN CANCER CELLS AND USES THEREOF” (CHINA PHARMACEUTICAL UNIVERSITY, priority 2017, published 2021).

Columns and labels:
[1] = tested on: human liver cancer HepG2 cell line; experiment: Indexes related to lipid metabolism in human liver cancer cells (commercial kits); assay type: cell-based; details: HepG2, 24 h treatment, FIG. 2
Protocol: (§1) In-vivo antineoplastic activity and activity of inhibiting abnormal lipid metabolism of tumors of the RAs are verified by establishing a nude mouse subcutaneously transplanted tumor model with liver cancer cells.
An overnight human liver cancer HepG2 cell line is cultivated by a 10% FBS medium. Pancreatin is added for digestion to form a cell suspension, which is inoculated onto a 6-well plate according to an appropriate concentration. After 24 h, the RA-V or the RA-XII is added for treatment for 24 h. Digestion is conducted with the pancreatin. Centrifugation is conducted for 5 to 10 min at a room temperature and 2000 rpm, and cells are collected. The cells are resuspended once with pre-cooled 1×PBS (4° C.), centrifuged for 5 to 10 min at 2000 rpm, and washed. By adopting commercial kits, contents of total cholesterol and triglycerides in the cells are detected through a single reagent GPO-PAP method respectively, and contents of low-density lipoproteins and high-density lipoproteins in the cells are detected through a double-reagent direct method (the commercial kits are purchased from the Nanjing Jiancheng Bioengineering Institute, with article numbers of A111-1, A110-1, A113-1 and A112-1 respectively).

[2] = Weights of nude mice in the in-vivo antineoplastic test; set-up: species or system BABL/c nude mice; details: caudal vein dosing every other day, 21 days, FIG. 4
Protocol: (§2) HepG2 is diluted into […] with a serum-free MEM. 100 μL of cell suspension is taken and inoculated to left armpits of BABL/c nude mice subcutaneously, and grows for 7 days to form a tumor-bearing mouse model. Inoculated and well-grown tumor-bearing mice are grouped at random, and dosed with the RA-XII once through caudal veins every other day. While dosing, sizes of tumors are measured with a vernier caliper (a tumor volume=a long diameter×a short diameter^2/2), and weights of the nude mice are recorded and counted. The used animals are killed after dosed for 21 days, and tumors are peeled and photographed.

[3] = tested on: tissues of HepG2 subcutaneously transplanted tumors; experiment: Indexes related to lipid metabolism in tissues of subcutaneously transplanted tumors; assay type: in vivo, BABL/c nude mice; details: tumor tissues from Embodiment 4, RIPA lysate, FIG. 5
Protocol: as §2
Tissues of the tumors obtained in Embodiment 4 are taken and lysed with an RIPA lysate. Then contents of cholesterol, triglycerides, low-density lipoproteins and high-density lipoproteins are detected by adopting commercial kits (specific methods are the same as Embodiment 2).

[4] = tested on: tissues of HepG2 subcutaneously transplanted tumors; experiment: Lipid droplets in tissues of subcutaneously transplanted tumors, Oil Red staining; assay type: in vivo, BABL/c nude mice; details: tumor tissues from Embodiment 4, Oil Red staining of cryosections, FIG. 6
Protocol: as §2
Tissues of the tumors obtained in Embodiment 4 are taken and embedded by OCT and then rapidly cooled. Cryostat serial sectioning is conducted with a thickness being 20 μm. Drying is conducted for 30 min at a room temperature. Fixing is conducted with 4% paraformaldehyde for 30 min. Staining is conducted with an Oil Red working solution for about 30 min at the room temperature. Washing is conducted with PBS twice. Sections are sealed with a glycerin jelly. Overnight drying is conducted, and pictures are taken under a microscope.

[5] = tested on: HepG2 subcutaneously transplanted tumors; experiment: In-vivo antineoplastic test, nude mouse subcutaneously transplanted tumor model; set-up: species or system BABL/c nude mice; details: caudal vein dosing every other day, 21 days, FIG. 4
Protocol: as §1, §2

[6] = tested on: human liver cancer HepG2 cell line; experiment: Lipid droplet formation in human liver cancer cells, Oil Red staining; assay type: cell-based; details: HepG2, 24 h treatment, FIG. 3
Protocol: as §1
0.5 g of pre-ground and pre-crushed dried Oil Red powder (purchased from Sigma Company) is weighed, and dissolved in a small amount of isopropanol. Then isopropanol is added to reach 100 ml. A solution is sealed in a brown bottle (or packaged with tin foil paper for avoiding light) for preservation at 4° C. as a storage solution, which may be preserved for a long time. When using, 6 ml of the solution is taken, and 4 ml of tri-distilled water is added to be evenly mixed. The mixed solution is filtered by qualitative filter paper into a working solution, which is used up within a few hours after diluted. An overnight human liver cancer HepG2 cell line is cultivated by a 10% FBS medium. Pancreatin is added for digestion to form a cell suspension, which is inoculated onto a 24-well plate according to an appropriate concentration. After 24 h, the RA-XII is added for treatment for 24 h. A cultivation solution is poured out carefully and slowly. Fixing is then conducted with 4% paraformaldehyde for 30 min. Staining is conducted with an Oil Red working solution for about 30 min at the room temperature. Washing is conducted with PBS twice. Pictures are taken under a microscope.

[7] = tested on: human liver cancer HepG2 cell line; experiment: Growth inhibition of human liver cancer cells, SRB method; assay type: cell-based; details: HepG2, 24 h treatment, FIG. 1
Protocol: as §1
Cell viability is determined by adopting an SRB method. An overnight human liver cancer HepG2 cell line (purchased from the Cell Bank of Committee on Type Culture Collection of Chinese Academy of Sciences) is cultivated by a 10% FBS medium. Pancreatin is added for digestion to form a cell suspension, which is inoculated onto a 96-well plate according to an appropriate concentration at 100 μl/well. Cultivation is conducted in a CO2 incubator for 24 h until cells adhere to walls completely. Different final concentrations of RA-XII are added, after acting for 24 h, 50 μl of a 4° C. pre-cooled TCA solution (30%, w/v) is added into each well for fixing of the cells, and a final concentration of the TCA solution is 10%. The 96-well plate is transferred into a 4° C. refrigerator for fixing for 1 h after still standing for 5 min. The 96-well plate is taken out, washed 5 times with deionized water, and aired at a room temperature. […] Optical densities are determined at 540 nm by adopting a microplate reader.

Row | SMILES | high-density lipoproteins content in cells [1] | low-density lipoproteins content in cells [1] | total cholesterol content in cells [1] | triglycerides content in cells [1] | weights of the nude mice [2] | high-density lipoproteins in tumor tissues [3] | low-density lipoproteins in tumor tissues [3] | total cholesterol in tumor tissues [3] | triglycerides in tumor tissues [3] | number of lipid droplets in tumor tissues [4] | growth speed of subcutaneously transplanted tumors (tumor volume) [5] | number of lipid droplets in tumor cells [6] | proliferation of tumor cells (cell viability, SRB) [7]
1 | COc1ccc(C[C@H]2C(=O)N[C@@H](C)C(=O)N(C)C3Cc4ccc(cc4)Oc4cc(ccc4O)C[C@@H](C(=O)N[C@H](C)C(=O)N[C@@H](C)C(=O)N2C)N(C)C3=O)cc1 [RA-V] | no obvious influence | obviously inhibit expression | obviously inhibit expression | obviously inhibit expression |  |  |  |  |  |  |  |  | 
2 | COc1ccc(C[C@H]2C(=O)N[C@@H](C)C(=O)N(C)C3Cc4ccc(cc4)Oc4cc(ccc4O[C@@H]4OC(CO)[C@@H](O)[C@H](O)C4O)C[C@@H](C(=O)N[C@H](C)C(=O)N[C@@H](C)C(=O)N2C)N(C)C3=O)cc1 (some centres unmarked) [RA-XII] | no obvious influence | obviously inhibit expression | obviously inhibit expression | obviously inhibit expression | no obvious influence | no obvious influence | obviously inhibit expression | obviously inhibit expression | obviously inhibit expression | obviously reduce the number of the lipid droplets | obviously reduce a growth speed | obviously reduce the number of the lipid droplets | inhibits rapid proliferation of tumor cells
